Results as given in patent publication US4241069A, “3-Methylene flavanones and 3-methylene chromanones” (Miles Laboratories, Inc., priority 1979, dated 1980).
Converted amounts (≈) assume the structure as drawn.

What was measured:
T. mentagrophytes TM-2 = test: MIC, agar incorporation method; assay type: cell-based; settings: Trichophyton mentagrophytes, TM2, 32° C., 48-72 hours, read-out: Minimal Inhibitory Concentration
Protocol: (§1) The compounds of the present invention were tested for their ability to inhibit the growth of microorganisms by in vitro tests. Generally the in vitro tests involve growing representative microorganisms under conditions favorable to such growth and measuring the effectiveness of one or more compounds in inhibiting or destroying the growth of the microorganisms. The microorganisms used include representative bacteria, fungi and yeasts.
(§2) A representative selection of the test microorganisms were cultured in a nutrient broth, such as, for example, Eugon, commercially available from Difco Laboratories, Detroit, Michigan. Bacteria and Candida species were cultured for 24 hours at 32°-37° C. and fungi were cultured for approximately one week at 32° C. Inocula were prepared by suspending the growth or spores from a slant culture in sufficient sterile normal (0.9 percent) saline or Eugon broth, to yield cell or spore concentrations of 1,000,000 cells per milliliter. Anaerobic bacteria were cultured for 48-72 hours at 32°-37° C. in a thioglycollate containing medium, for example, Fluid Thioglycollate medium or NIH thioglycollate broth, commercially available from Difco Laboratories.
(§3) The compounds of the present invention were tested for activity against bacteria, yeasts and fungi by the agar incorporation method described below. MA 1347, 3-(dimethylaminomethyl)flavanone (disclosed in U.S. Pat. No. 3,753,985) was used as a comparative standard along with controls for each solvent system used.
(§4) A series of agar plates containing two-fold dilutions of each compound to be tested, ranging in concentration from 100 to 3.1 mcg/ml of agar medium was prepared. Aliquots of each concentration (100, 50, 25, 12.5, 6.2, and 3.1) prepared in N,N-dimethylformamide or 50 percent aqueous DMF were added to liquid Eugon agar at 48° C. (one part test solution to 100 parts agar). In some cases, tests with further dilutions to 0.125 mcg/ml were conducted. The agar medium, containing the 3-methylene flavanone or chromanone compound to be tested, was then dispensed into petri dishes and allowed to solidify. The solidified plates were kept overnight at room temperatures to dry the surface of the agar.
(§5) The agar plates were then inoculated with a drop of the standardized cell or spore suspension. Inoculated plates were incubated at 32° C. The inhibition end-point or minimum inhibitory concentration (MIC) shown in Table D represent the lowest concentration of test compound which inhibited the growth of the microorganism. Visual determination of growth inhibition was used. Bacteria and yeast end-points were determined after 24 hours incubation; molds, dermatophytes and anaerobes after 48-72 hours incubation. MIC values shown as ranges represent the extremes found in repeat assays. Virtually all such values were written plus or minus one dilution, the accepted variation of a two-fold dilution assay.

T. mentagrophytes CDC = test: MIC, agar incorporation method; assay type: cell-based; settings: Trichophyton mentagrophytes, 32° C., 48-72 hours, read-out: Minimal Inhibitory Concentration
Protocol: as §1, §2, §3, §4, §5

C. guillermondii VM 42 = test: MIC, agar incorporation method; assay type: cell-based; settings: 32° C., 24 hours; read-out: Minimal Inhibitory Concentration
Protocol: as §1, §2, §3, §4, §5

[1] = tested on: Pseudomonas aeruginosa ATCC 14502; test: MIC, agar incorporation method; assay type: cell-based; settings: ATCC14502, 32° C., 24 hours, read-out: Minimal Inhibitory Concentration
Protocol: as §1, §2, §3, §4, §5

[2] = tested on: Escherichia coli ATCC 8739; test: MIC, agar incorporation method; assay type: cell-based; settings: ATCC8739, 32° C., 24 hours, read-out: Minimal Inhibitory Concentration
Protocol: as §1, §2, §3, §4, §5

[3] = tested on: Aspergillus niger ATCC 16404; test: MIC, agar incorporation method; assay type: cell-based; settings: ATCC16404, 32° C., 48-72 hours, read-out: Minimal Inhibitory Concentration
Protocol: as §1, §2, §3, §4, §5

[4] = tested on: Candida albicans ATCC 10231; test: MIC, agar incorporation method; assay type: cell-based; settings: ATCC10231, C. albicans ATCC 10231, 32° C., 24 hours, read-out: Minimal Inhibitory Concentration
Protocol: as §1, §2, §3, §4, §5

[5] = tested on: Microsporum gypseum ATCC 14683; test: MIC, agar incorporation method; assay type: cell-based; settings: Nannizzia gypsea, ATCC14683, 32° C., 48-72 hours; read-out: Minimal Inhibitory Concentration
Protocol: as §1, §2, §3, §4, §5

[6] = tested on: Trichophyton mentagrophytes ATCC 4807; test: MIC, agar incorporation method; assay type: cell-based; settings: ATCC4807, 32° C., 48-72 hours, read-out: Minimal Inhibitory Concentration
Protocol: as §1, §2, §3, §4, §5

[7] = tested on: Streptococcus faecalis ATCC 10541; test: MIC, agar incorporation method; assay type: cell-based; settings: Enterococcus faecalis, ATCC10541; 32° C., 24 hours; read-out: Minimal Inhibitory Concentration
Protocol: as §1, §2, §3, §4, §5

T. tonsurans ATCC 10217 = test: MIC, agar incorporation method; assay type: cell-based; settings: Trichophyton tonsurans, ATCC10217; 32° C., 48-72 hours; read-out: Minimal Inhibitory Concentration
Protocol: as §1, §2, §3, §4, §5

[8] = tested on: Staphylococcus aureus ATCC 6538; test: MIC, agar incorporation method; assay type: cell-based; settings: Staphylococcus aureus, ATCC6538; S. aureus ATCC 6538; 32° C., 24 hours; read-out: Minimal Inhibitory Concentration
Protocol: as §1, §2, §3, §4, §5

T. rubrum ATCC 10218 = test: MIC, agar incorporation method; assay type: cell-based; settings: Trichophyton rubrum, ATCC10218; 32° C., 48-72 hours; read-out: Minimal Inhibitory Concentration
Protocol: as §1, §2, §3, §4, §5

C. krusei VM 29B = test: MIC, agar incorporation method; assay type: cell-based; settings: Pichia kudriavzevii, VM29B; 32° C., 24 hours; read-out: Minimal Inhibitory Concentration
Protocol: as §1, §2, §3, §4, §5

C. albicans NRRL Y-477 = test: MIC, agar incorporation method; assay type: cell-based; settings: Candida albicans, NRRLY477, 32° C., 24 hours, read-out: Minimal Inhibitory Concentration
Protocol: as §1, §2, §3, §4, §5

A. fumigatus NRRL 163 = test: MIC, agar incorporation method; assay type: cell-based; settings: Aspergillus fumigatus, NRRL163, NRRL 163; 32° C., 48-72 hours; read-out: Minimal Inhibitory Concentration
Protocol: as §1, §2, §3, §4, §5

C. tropicalis NRRL Y1410 = test: MIC, agar incorporation method; assay type: cell-based; settings: Candida tropicalis, NRRLY1410; 32° C., 24 hours; read-out: Minimal Inhibitory Concentration
Protocol: as §1, §2, §3, §4, §5

[9] = tested on: Sarcina subflava ATCC 7468; test: MIC, agar incorporation method; assay type: cell-based; settings: ATCC7468, 32° C., 24 hours, read-out: Minimal Inhibitory Concentration
Protocol: as §1, §2, §3, §4, §5

[10] = tested on: Propionobacterium acnes ATCC 6919; test: MIC, agar incorporation method, anaerobic; assay type: cell-based; settings: 48 hours at 35° C., GasPak Anaerobic Jar, read-out: Minimal Inhibitory Concentration
Protocol: as §1, §2, §3, §4, §5
(§6) *Anaerobic: 48 hours incubation at 35° C. GasPak Anaerobic Jar

[11] = tested on: Bacteriodides fragilis ATCC 8482; test: MIC, agar incorporation method, anaerobic; assay type: cell-based; settings: 48 hours at 35° C., GasPak Anaerobic Jar, read-out: Minimal Inhibitory Concentration
Protocol: as §1, §2, §3, §4, §5, §6

S. aureus NRRL B2747 [12] = test: MIC, agar incorporation method, anaerobic; assay type: cell-based; settings: Staphylococcus aureus, NRRLB2747, 48 hours at 35° C., GasPak Anaerobic Jar, read-out: Minimal Inhibitory Concentration
Protocol: as §1, §2, §3, §4, §5, §6

[13] = tested on: Clostridium sporogenes ATCC 11437; test: MIC, agar incorporation method, anaerobic; assay type: cell-based; settings: ATCC11437, 48 hours at 35° C., GasPak Anaerobic Jar, read-out: Minimal Inhibitory Concentration
Protocol: as §1, §2, §3, §4, §5, §6

S. aureus NRRL B2747 [14] = test: MIC, agar incorporation method; assay type: cell-based, Staphylococcus aureus; settings: Staphylococcus aureus, NRRLB2747, 32° C., 24 hours, read-out: Minimal Inhibitory Concentration
Protocol: as §1, §2, §3, §4, §5

A. fumigatus NRRL 165 = test: MIC, agar incorporation method; assay type: cell-based; settings: Aspergillus fumigatus, NRRL165, 32° C., 48-72 hours, read-out: Minimal Inhibitory Concentration
Protocol: as §1, §2, §3, §4, §5

MIC (T. rubrum ATCC 10218) [µg/mL]	SMILES	MIC (T. mentagrophytes TM-2) [µg/mL]	MIC (T. mentagrophytes CDC) [µg/mL]	MIC (C. guillermondii VM 42) [µg/mL]	MIC [1] [µg/mL]	MIC [2] [µg/mL]	MIC [3] [µg/mL]	MIC [4] [µg/mL]	MIC [5] [µg/mL]	MIC [6] [µg/mL]	MIC [7] [µg/mL]	MIC (T. tonsurans ATCC 10217) [µg/mL]	MIC [8] [µg/mL]	MIC (C. krusei VM 29B) [µg/mL]	MIC (C. albicans NRRL Y-477) [µg/mL]	MIC (A. fumigatus NRRL 163) [µg/mL]	MIC (C. tropicalis NRRL Y1410) [µg/mL]	MIC [9] [µg/mL]	MIC [10] [µg/mL]	MIC (S. aureus NRRL B2747 [14]) [µg/mL]	also measured
12.5 (≈ 46.9 µM)	C=C1C(=O)c2ccccc2OC1c1cccc(OC)c1 (centres unmarked) [Ex. 7, 3'-methoxy-3-methylene flavanone]	25 (≈ 93.9 µM)	25 (≈ 93.9 µM)	> 100	> 100	> 100	> 100	> 100	25 (≈ 93.9 µM)	25 (≈ 93.9 µM)	100 (≈ 376 µM)	–	25 (≈ 93.9 µM)	100 (≈ 376 µM)	100 (≈ 376 µM)	–	> 100	–	–	25 (≈ 93.9 µM)	MIC (A. fumigatus NRRL 165): > 100 µg/mL
25 (≈ 63.4 µM)	C=C1C(=O)c2cc(Br)ccc2OC1c1ccc(Br)cc1 (centres unmarked) [Ex. 17, 4',6-dibromo-3-methylene flavanone]	25 (≈ 63.4 µM)	50 (≈ 127 µM)	> 100	> 100	> 100	> 100	100 (≈ 254 µM)	50 (≈ 127 µM)	12.5 (≈ 31.7 µM)	> 100	–	6.2 (≈ 15.7 µM)	100 (≈ 254 µM)	100 (≈ 254 µM)	> 100	> 100	–	–	12.5 (≈ 31.7 µM)	MIC (A. fumigatus NRRL 165): > 100 µg/mL
–	C=C1C(=O)c2ccccc2OC1(c1ccccc1)c1ccncc1 (centres unmarked) [Ex. 22, 3-Methylene-2-(4-pyridyl) flavanone]	12.5 (≈ 39.9 µM)	25 (≈ 79.8 µM)	> 100	> 100	> 100	> 100	100 (≈ 319 µM)	12.5 (≈ 39.9 µM)	12.5 (≈ 39.9 µM)	3.1 (≈ 9.89 µM)	6.2 (≈ 19.8 µM)	0.78 (≈ 2.49 µM)	100 (≈ 319 µM)	100 (≈ 319 µM)	25 (≈ 79.8 µM)	> 100	3.1 (≈ 9.89 µM)	1 (≈ 3.19 µM)	0.78 (≈ 2.49 µM)	MIC [11]: 0.25 µg/mL (≈ 0.798 µM); MIC (S. aureus NRRL B2747 [12]): 1 µg/mL (≈ 3.19 µM); MIC [13]: 0.5 µg/mL (≈ 1.6 µM)

SMILES	MIC (T. rubrum ATCC 10218) [µg/mL]	MIC (T. mentagrophytes TM-2) [µg/mL]	MIC (T. mentagrophytes CDC) [µg/mL]	MIC (C. guillermondii VM 42) [µg/mL]	MIC [1] [µg/mL]	MIC [2] [µg/mL]	MIC [3] [µg/mL]	MIC [4] [µg/mL]	MIC [5] [µg/mL]	MIC [6] [µg/mL]	MIC [7] [µg/mL]	MIC (T. tonsurans ATCC 10217) [µg/mL]	MIC [8] [µg/mL]	MIC (C. krusei VM 29B) [µg/mL]	MIC (C. albicans NRRL Y-477) [µg/mL]	MIC (A. fumigatus NRRL 163) [µg/mL]	MIC (C. tropicalis NRRL Y1410) [µg/mL]	MIC [9] [µg/mL]	MIC [10] [µg/mL]	MIC (S. aureus NRRL B2747 [14]) [µg/mL]	also measured
C=C1C(=O)c2ccccc2OC1c1ccc(Cl)cc1Cl (centres unmarked) [Ex. 4, 2',4'-dichloro-3-methylene flavanone]	12.5 (≈ 41 µM)	12.5 to 25 (≈ 41 to 81.9 µM)	12.5 to 25 (≈ 41 to 81.9 µM)	50 (≈ 164 µM)	> 100	> 100	100 (≈ 328 µM)	25 (≈ 81.9 µM)	6.2 to 12.5 (≈ 20.3 to 41 µM)	12.5 (≈ 41 µM)	25 to 50 (≈ 81.9 to 164 µM)	6.2 (≈ 20.3 µM)	1.56 (≈ 5.11 µM)	25 to 50 (≈ 81.9 to 164 µM)	25 (≈ 81.9 µM)	50 (≈ 164 µM)	50 (≈ 164 µM)	3.1 (≈ 10.2 µM)	3.1 (≈ 10.2 µM)	1.56 (≈ 5.11 µM)	MIC [11]: 3.1 µg/mL (≈ 10.2 µM); MIC (S. aureus NRRL B2747 [12]): 6.2 µg/mL (≈ 20.3 µM); MIC [13]: ≤ 0.78 µg/mL
